Experiments:
[1] = Cytotoxicity against human HepG2 cells assessed as cell viability at 1.3 uM after 72 hrs by WST1 assay (reference value: 100%); type: cell-based; details: read-out: Activity
[2] = Cytotoxicity against human HepG2 cells assessed as cell vitality at 5.1 uM after 72 hrs by trypan blue staining based assay (reference value: 1.1 +/- 0.5%); details: read-out: Activity
[3] = Cytotoxicity against human HepG2 cells assessed as cell viability at 0.4 uM after 72 hrs by WST1 assay (reference value: 100%); type: cell-based; details: read-out: Activity
HepG2 [4] = assay: Cytotoxicity against human HepG2 cells assessed as cell vitality at 0.4 uM after 72 hrs by trypan blue staining based assay (reference value: 1.1 +/- 0.5%); details: hepg2, 72 h
[5] = Cytotoxicity against human HepG2 cells assessed as cell viability at 5.1 uM after 72 hrs by WST1 assay (reference value: 100%); type: cell-based; details: read-out: Activity
HepG2 [6] = assay: Cytotoxicity against human HepG2 cells assessed as cell vitality after 72 hrs by trypan blue staining based assay; details: hepg2, 72 h
[7] = Cytotoxicity against human HepG2 cells assessed as cell vitality at 10.1 uM after 72 hrs by trypan blue staining based assay (reference value: 1.1 +/- 0.5%); details: read-out: Activity
[8] = Cytotoxicity against human HepG2 cells assessed as cell viability at 2.5 uM after 72 hrs by WST1 assay (reference value: 100%); type: cell-based; details: read-out: Activity
[9] = Cytotoxicity against human HepG2 cells assessed as cell viability at 10.1 uM after 72 hrs by WST1 assay (reference value: 100%); type: cell-based; details: read-out: Activity
HepG2 [10] = assay: Cytotoxicity against human HepG2 cells assessed as cell vitality at 0.1 uM after 72 hrs by trypan blue staining based assay (reference value: 1.1 +/- 0.5%); details: hepg2, 72 h
HepG2 [11] = assay: Cytotoxicity against human HepG2 cells assessed as cell viability after 72 hrs by WST1 assay; type: cell-based; details: for IC50: Homo sapiens, HepG2, 72 h; for Activity: human, hepg2, 72 h
HepG2 [12] = assay: Cytotoxicity against human HepG2 cells assessed as cell vitality at 1.3 uM after 72 hrs by trypan blue staining based assay (reference value: 1.1 +/- 0.5%); details: hepg2, 72 h
HepG2 [13] = assay: Cytotoxicity against human HepG2 cells assessed as cell vitality at 2.5 uM after 72 hrs by trypan blue staining based assay (reference value: 1.1 +/- 0.5%); details: hepg2, 72 h
[14] = Cytotoxicity against human HepG2 cells assessed as cell viability at 0.1 uM after 72 hrs by WST1 assay (reference value: 100%); type: cell-based; details: read-out: Activity

Row | SMILES | viability at 72 h, 1.3 µM [1] [%] | viability at 72 h, 5.1 µM [2] [%] | viability at 72 h, 0.4 µM [3] [%] | Activity (HepG2 [4]) [%] | viability at 72 h, 5.1 µM [5] [%] | Activity (HepG2 [6]) | viability at 72 h, 10.1 µM [7] [%] | viability at 72 h, 2.5 µM [8] [%] | viability at 72 h, 10.1 µM [9] [%] | Activity (HepG2 [10]) [%] | IC50 (HepG2 [11]) [µM] | Activity (HepG2 [11]) | Activity (HepG2 [12]) [%] | Activity (HepG2 [13]) [%] | viability at 72 h, 0.1 µM [14] [%]
1 | C=C(C)[C@@H]1NC(=O)[C@H](NC)[C@H](O)c2cc(Cl)c(O)c(c2)O[C@](C)(CC)[C@@H](C(=O)N2CC=C[C@H]2C(=O)N/C(C(=O)N/C(=C/C(=O)O)C(=O)O)=C(\C)CC)NC1=O | 99 | 9 | 105 | 1.1 | 57 | Dose-dependent effect | 17 | 83 | 48 | 0.5 | 8.1 | Dose-dependent effect | 1.6 | 4.3 | 106
2 | C=C(C)[C@@H]1NC(=O)[C@H](N(C)C)[C@H](O)c2cc(Cl)c(O)c(c2)O[C@](C)(CC)[C@@H](C(=O)N2CC=C[C@H]2C(=O)N/C(C(=O)N/C(=C/C(=O)O)C(=O)O)=C(\C)CC)NC1=O | 85 | 18.4 | 101 | 0.9 | 46 | Dose-dependent effect | 29.8 | 61 | 37 | 0.9 | 6.1 | Dose-dependent effect | 4.7 | 7.7 | 105
